Reference: patent US10959992B2, “Methods of treatment of asthma and COPD” (Bridge Pharma, Inc., priority 2019, dated 2021)

Assays:
PAF-induced eosinophilia = assay: PAF-induced pulmonary eosinophil accumulation after continuous subcutaneous dosing; type: in vivo, Sprague-Dawley rats; conditions: 1 mg/kg/day sc for 6 days, rats; BSA + saline control 100, PAF control 250
Protocol: Male Sprague-Dawley rats, 400-600 g, were used in these studies.
The study described here used subcutaneous administration of norketotifen and ketotifen by Alzet® osmotic pumps. The rats were administered either RS-norketotifen hydrogen fumarate (1.0 mg/kg/day) or RS-ketotifen hydrogen fumarate (1.0 mg/kg/day) or saline. After five days of sc infusions of test articles and the vehicle, the animals were injected, i.p. with 10 μg PAF (platelet aggregating factor) in 0.25% bovine serum albumin (BSA) in saline. The subcutaneous infusions of test articles or vehicle were continued for another twenty-four hours and the animals were then sacrificed by intraperitoneal injections of a barbiturate. The tracheae of the euthanized animals were exposed and cannulated and aliquots (6×10 ml) of a Tyrode solution were successively introduced into the lungs and aspirated by gentle compression of the thorax. The total recovery of lung fluid was usually above 80%. The cell suspensions were concentrated by low speed centrifugation (200 g for 10 min) and the resulting cell pellet was resuspended in 1 ml of a Tyrode solution. Total cell counts were performed after dilution in Turks fluid, fixation in methanol and Leishman staining.
The study shown here used norketotifen, ketotifen, and saline (control) after continuous dosing with Alzet® Osmotic pumps.

[1] = system: croton oil-induced ear swelling; assay: Croton oil-induced ear swelling; type: in vivo, CD-1 female mice; set-up: Average ear thickness: unit not given beside the values; conditions: for Average ear thickness: single oral dose 10 mg/kg 60 min before
Protocol: The effects of NK, PRED and the vehicle (5% PEG in water) were tested orally in CD-1 female mice. Under the test protocol, 20 μl of 1.0% croton oil in acetone was applied topically to both ears of three groups of mice, each group consisting of 6 mice. No attempt was made to remove the croton oil solution since the solvent evaporated within 30 seconds. The oral doses of NK and PRED were 10 mg/kg (10 ml/kg) bodyweight for both compounds and were administered 60 min before the croton oil applications. Vehicle-treated mice were dosed 10 ml/kg of water, containing 5% polyethylene glycol (PEG), which was also the solvent for the test articles. Ear thickness was measured with an electronic caliper and mean ear thickness (N=12; right+left ears) were calculated and compared with the thickness of ears from vehicle-treated mice (Student's t-test).

[2] = system: oxazolone-induced increase in ear thickness; assay: Oxazolone test of immunosuppression (ear thickness); type: in vivo, BALB/c mice; conditions: for Increase in ear thickness (mm): control 0.153; for Increase in ear thickness (%): control 100.0
Protocol: Male BALB/c mice, 20-24 grams, 7-12 weeks, were used. The sensitization dosing (Day 1) consisted of painting the ventral portion of the pre-shaved abdominal skin with 0.1 ml of 3.0% oxazolone in 70% ethanol. Test articles were administered orally in 1.0% methyl-cellulose, starting on Day 1 and continuing for 10 consecutive days. The challenge dosing consisted of the application of 0.05 ml of 3.0% oxazolone in 70% ethanol on both sides of the outer pinna of the right ear. The thickness of both ears of all animals was measured with a calliper before the challenge dose and 24 hours after the administration of the challenge dose (Day 10). The ear thickness of untreated mice was 0.19 to 0.20 mm.
Justification of the model: The classic oxazolone test method was used with minor modifications. This method has been used for over 40 years in numerous drug development projects.

IL-13 = assay: PHA-induced release of IL-13 from human buffy coats; type: cell-based; conditions: 10 uM; PHA 5 μg/ml, 16 hours; inhibition
Protocol: (§1) The study was conducted in two phases. The first phase included optimization of the test methodology and included also dose-range finding studies, using buffy coats from 3 human donors, stimulated with phytohemagglutinin (PHA). The concentrations of the test article and the duration of exposure were optimized to obtain acceptable dose-response ratios. Following optimization of the test conditions, a final protocol was issued. In the Main Study, buffy coats from 5 healthy human male donors were stimulated with PHA, 5 μg/ml.
(§2) The inhibitory effects of three concentrations of NK and one concentration of ketotifen were evaluated in the Main Study. The buffy coats were resuspended in assay media and were pre-incubated for 30 min with either vehicle/saline, ketotifen (10 μM) or norketotifen (1.0; 10 or 100 μM). Following these preincubations, the white blood cell suspensions were stimulated for 16 hours with PHA, 5 μg/ml. The cell system supernatants were then harvested and stored frozen.

IL-4 = assay: PHA-induced release of IL-4 from human buffy coats; type: cell-based; conditions: 10 uM; PHA 5 μg/ml, 16 hours; inhibition
Protocol: as §1, §2

TNF-α = assay: PHA-induced release of TNF-α from human buffy coats; type: cell-based; conditions: 10 uM; PHA 5 μg/ml, 16 hours; inhibition
Protocol: as §1, §2

IL-2 = assay: PHA-induced release of IL-2 from human buffy coats; type: cell-based; conditions: 10 uM; PHA 5 μg/ml, 16 hours; inhibition
Protocol: as §1, §2

IL-1β = assay: PHA-induced release of IL-1β from human buffy coats; type: cell-based; conditions: 10 uM; PHA 5 μg/ml, 16 hours; inhibition
Protocol: as §1, §2

IL-8 = assay: PHA-induced release of IL-8 from human buffy coats; type: cell-based; conditions: 10 uM; PHA 5 μg/ml, 16 hours; inhibition
Protocol: as §1, §2

IFN-γ = assay: PHA-induced release of IFN-γ from human buffy coats; type: cell-based; conditions: 10 uM; PHA 5 μg/ml, 16 hours; inhibition
Protocol: as §1, §2

IL-10 = assay: PHA-induced release of IL-10 from human buffy coats; type: cell-based; conditions: 10 uM; PHA 5 μg/ml, 16 hours; inhibition
Protocol: as §1, §2

IL-6 = assay: PHA-induced release of IL-6 from human buffy coats; type: cell-based; conditions: 10 uM; PHA 5 μg/ml, 16 hours; inhibition
Protocol: as §1, §2

sedation = conditions: art-accepted mouse model of sedation; U.S. Pat. Nos. 7,226,934 and 7,557,128; cited from earlier work

## CN1CCC(=C2c3ccccc3CC(=O)c3sccc32)CC1.O=C(O)/C=C/C(=O)O [Ketotifen HF, RS-ketotifen hydrogen fumarate, reference compound]
PAF-induced eosinophilia
  PAF-induced esosinophilia (% ± SEM): 110 ± 3%

## C[C@]12C=CC(=O)C=C1CC[C@@H]1[C@@H]2[C@@H](O)C[C@@]2(C)[C@H]1CC[C@]2(O)C(=O)CO [PRED, prednisolone]
[1]; 0 (predose) min after croton oil, vehicle 0.21 ± 0.02
  Average ear thickness: 0.22 ± 0.01
[1]; 90 min after croton oil, vehicle 0.29 ± 0.04
  Average ear thickness: 0.28 ± 0.01
[1]; 120 min after croton oil, vehicle 0.28 ± 0.02
  Average ear thickness: 0.27 ± 0.01
[1]; single oral dose 10 mg/kg, croton oil ear swelling in mice
  Anti-inflammatory effect compared with vehicle control group (conclusion in words): did not express statistically significant anti-inflammatory effect
[2]; 0.3 mg/kg/day oral for 10 days
  Immunosuppression (%): 29.4%
  Increase in ear thickness (mm): 0.108 mm
  Increase in ear thickness (%): 70.6%
[2]; 1.0 mg/kg/day oral for 10 days
  Immunosuppression (%): 45.0%
  Increase in ear thickness (mm): 0.084 mm
  Increase in ear thickness (%): 55.0%
[2]; 3.0 mg/kg/day oral for 10 days
  Immunosuppression (%): 50.3%
  Increase in ear thickness (mm): 0.076 mm
  Increase in ear thickness (%): 49.7%
[2]; daily oral dosing for 10 days to mice, RS-norketotifen 10 or 30 mg/kg, prednisolone at 10 times lower doses
  Immuno-suppressant activity (conclusion in words): potent and dose-dependent immune suppression

## CN1CCC(=C2c3ccccc3CC(=O)c3sccc32)CC1 [Ketotifen, ketotifen, reference compound]
IL-13
  Effect on PHA-induced release of IL-13 (%): 0.00%
IL-4
  Effect on PHA-induced release of IL-4 (%): 0.00%
TNF-α
  Effect on PHA-induced release of TNF-α (%): 39.98%
IL-2
  Effect on PHA-induced release of IL-2 (%): 0.00%
IL-1β
  Effect on PHA-induced release of IL-1β (%): 0.00%
IL-8
  Effect on PHA-induced release of IL-8 (%): 30.73%
IFN-γ
  Effect on PHA-induced release of IFN-γ (%): 0.00%
IL-10
  Effect on PHA-induced release of IL-10 (%): 0.00%
IL-6
  Effect on PHA-induced release of IL-6 (%): 0.00%

## O=C(O)/C=C/C(=O)O.O=C1Cc2ccccc2C(=C2CCNCC2)c2ccsc21 [R-isomer, R-norketotifen]
sedation
  Sedative effects: sedative effects were attributed to the R-isomer

## O=C(O)C=CC(=O)O.O=C1Cc2ccccc2C(=C2CCNCC2)c2ccsc21 [Norketotifen HF, RS-norketotifen hydrogen fumarate]
PAF-induced eosinophilia
  PAF-induced esosinophilia (% ± SEM): 74 ± 4%
